For experiment [1], the target named is T1, Serine/threonine-protein kinase Chk1 (Homo sapiens) (UniProt O14757).
T1 sequence (whole entry): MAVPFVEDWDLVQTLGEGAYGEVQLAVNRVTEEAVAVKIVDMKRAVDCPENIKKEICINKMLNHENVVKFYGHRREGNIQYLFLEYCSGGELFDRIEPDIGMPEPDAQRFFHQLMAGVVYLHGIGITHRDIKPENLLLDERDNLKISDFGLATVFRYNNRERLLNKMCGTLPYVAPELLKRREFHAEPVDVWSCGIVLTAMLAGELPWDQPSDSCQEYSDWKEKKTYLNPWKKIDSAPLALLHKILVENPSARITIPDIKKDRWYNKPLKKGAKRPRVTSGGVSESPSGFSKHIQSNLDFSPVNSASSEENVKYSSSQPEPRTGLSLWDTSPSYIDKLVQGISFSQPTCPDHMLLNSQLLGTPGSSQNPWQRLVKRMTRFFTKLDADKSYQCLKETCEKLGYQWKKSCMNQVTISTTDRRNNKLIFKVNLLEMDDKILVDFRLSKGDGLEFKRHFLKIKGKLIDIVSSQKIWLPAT
Nature of the experiment: Inhibition of human recombinant CHK1 at 40 nM in presence of ATP by radiometric assay relative to control.

Experiment [2] addresses Receptor-type tyrosine-protein kinase FLT3 (Homo sapiens) (UniProt P36888). The experiment is described as follows: Inhibition of human recombinant FLT3 at 40 nM in presence of ATP by radiometric assay relative to control.
Experiment [3] deals with T2, Tyrosine-protein kinase ITK/TSK (Homo sapiens) (UniProt Q08881).
T2 sequence (whole entry): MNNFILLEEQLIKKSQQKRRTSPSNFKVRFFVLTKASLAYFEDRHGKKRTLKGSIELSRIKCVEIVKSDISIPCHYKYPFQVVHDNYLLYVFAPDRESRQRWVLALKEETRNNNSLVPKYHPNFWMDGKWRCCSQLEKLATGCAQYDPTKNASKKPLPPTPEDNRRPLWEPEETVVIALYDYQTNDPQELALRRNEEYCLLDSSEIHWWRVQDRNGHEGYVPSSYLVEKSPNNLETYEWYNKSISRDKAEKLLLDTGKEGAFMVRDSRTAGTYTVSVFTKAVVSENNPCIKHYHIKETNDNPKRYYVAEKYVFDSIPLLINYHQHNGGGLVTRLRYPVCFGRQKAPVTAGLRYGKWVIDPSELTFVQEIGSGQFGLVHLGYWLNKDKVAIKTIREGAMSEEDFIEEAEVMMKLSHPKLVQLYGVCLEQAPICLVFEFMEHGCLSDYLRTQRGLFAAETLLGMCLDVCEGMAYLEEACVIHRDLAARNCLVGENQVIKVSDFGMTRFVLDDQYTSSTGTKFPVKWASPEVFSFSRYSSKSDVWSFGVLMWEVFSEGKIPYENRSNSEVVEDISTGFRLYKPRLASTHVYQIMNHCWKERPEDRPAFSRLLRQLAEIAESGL
The experiment is described as follows: Inhibition of human recombinant ITK at 40 nM in presence of ATP by radiometric assay relative to control.

Experiment [4] addresses Serine/threonine-protein kinase 35 (Homo sapiens) (UniProt Q8TDR2). Nature of the experiment: Inhibition of human recombinant CLIK1 at 40 nM related to control ULK1.
Experiment [5] addresses Ephrin type-A receptor 2 (Homo sapiens) (UniProt P29317). The experiment is described as follows: Inhibition of human recombinant EphA2 at 40 nM related to control ULK1.
Experiment [6] has as its target Serine/threonine-protein kinase pim-3 (Homo sapiens) (UniProt Q86V86). Nature of the experiment: Inhibition of human recombinant PIM3 at 40 nM related to control ULK1.
Experiment [7] has as its target Mitogen-activated protein kinase kinase kinase 20 (Homo sapiens) (UniProt Q9NYL2). Nature of the experiment: Inhibition of human recombinant ZAK at 40 nM related to control ULK1.
Experiment [8] addresses T3, cGMP-dependent protein kinase 2 (Homo sapiens) (UniProt Q13237).
T3 sequence (whole entry): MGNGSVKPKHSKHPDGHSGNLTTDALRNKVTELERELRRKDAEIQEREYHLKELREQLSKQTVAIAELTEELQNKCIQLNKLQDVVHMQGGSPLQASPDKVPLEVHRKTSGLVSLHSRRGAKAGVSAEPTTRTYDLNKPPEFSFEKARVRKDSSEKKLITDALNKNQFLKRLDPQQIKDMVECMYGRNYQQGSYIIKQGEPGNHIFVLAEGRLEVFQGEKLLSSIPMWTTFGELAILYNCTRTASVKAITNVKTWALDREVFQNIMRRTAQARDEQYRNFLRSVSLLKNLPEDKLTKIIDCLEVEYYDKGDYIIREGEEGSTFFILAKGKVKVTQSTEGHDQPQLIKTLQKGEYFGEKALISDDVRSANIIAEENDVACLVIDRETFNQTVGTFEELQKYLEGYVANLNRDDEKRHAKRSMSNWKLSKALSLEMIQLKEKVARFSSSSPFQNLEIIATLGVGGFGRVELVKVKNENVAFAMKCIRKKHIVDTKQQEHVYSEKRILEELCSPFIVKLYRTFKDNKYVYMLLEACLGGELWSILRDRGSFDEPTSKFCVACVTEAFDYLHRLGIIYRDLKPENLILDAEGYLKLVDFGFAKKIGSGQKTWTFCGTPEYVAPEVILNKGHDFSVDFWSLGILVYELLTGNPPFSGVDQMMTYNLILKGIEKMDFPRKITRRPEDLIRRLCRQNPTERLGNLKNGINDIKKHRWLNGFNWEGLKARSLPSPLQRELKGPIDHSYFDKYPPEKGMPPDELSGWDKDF
The experiment is described as follows: Inhibition of human recombinant PKG2 at 500 nM in presence of ATP by radiometric assay relative to control.

For orientation: inhibition means the relative decrease from the control value, in per cent.

Serine/threonine-protein kinase 35 (Homo sapiens), sequence (Q8TDR2 whole entry): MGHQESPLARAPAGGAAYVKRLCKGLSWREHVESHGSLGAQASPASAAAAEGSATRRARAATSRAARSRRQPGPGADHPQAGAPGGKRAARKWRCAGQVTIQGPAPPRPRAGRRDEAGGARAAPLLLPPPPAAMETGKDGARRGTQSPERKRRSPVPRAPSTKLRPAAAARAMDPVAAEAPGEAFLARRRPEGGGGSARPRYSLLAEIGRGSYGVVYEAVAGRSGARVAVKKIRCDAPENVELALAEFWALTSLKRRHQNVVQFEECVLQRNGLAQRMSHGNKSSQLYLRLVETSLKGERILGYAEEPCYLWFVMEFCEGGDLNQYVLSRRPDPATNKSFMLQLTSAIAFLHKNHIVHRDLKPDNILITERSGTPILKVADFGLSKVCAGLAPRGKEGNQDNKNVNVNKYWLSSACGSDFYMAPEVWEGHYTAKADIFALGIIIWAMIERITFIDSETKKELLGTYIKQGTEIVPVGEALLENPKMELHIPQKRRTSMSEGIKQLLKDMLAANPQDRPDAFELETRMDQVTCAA
Ephrin type-A receptor 2 (Homo sapiens), sequence (P29317 whole entry): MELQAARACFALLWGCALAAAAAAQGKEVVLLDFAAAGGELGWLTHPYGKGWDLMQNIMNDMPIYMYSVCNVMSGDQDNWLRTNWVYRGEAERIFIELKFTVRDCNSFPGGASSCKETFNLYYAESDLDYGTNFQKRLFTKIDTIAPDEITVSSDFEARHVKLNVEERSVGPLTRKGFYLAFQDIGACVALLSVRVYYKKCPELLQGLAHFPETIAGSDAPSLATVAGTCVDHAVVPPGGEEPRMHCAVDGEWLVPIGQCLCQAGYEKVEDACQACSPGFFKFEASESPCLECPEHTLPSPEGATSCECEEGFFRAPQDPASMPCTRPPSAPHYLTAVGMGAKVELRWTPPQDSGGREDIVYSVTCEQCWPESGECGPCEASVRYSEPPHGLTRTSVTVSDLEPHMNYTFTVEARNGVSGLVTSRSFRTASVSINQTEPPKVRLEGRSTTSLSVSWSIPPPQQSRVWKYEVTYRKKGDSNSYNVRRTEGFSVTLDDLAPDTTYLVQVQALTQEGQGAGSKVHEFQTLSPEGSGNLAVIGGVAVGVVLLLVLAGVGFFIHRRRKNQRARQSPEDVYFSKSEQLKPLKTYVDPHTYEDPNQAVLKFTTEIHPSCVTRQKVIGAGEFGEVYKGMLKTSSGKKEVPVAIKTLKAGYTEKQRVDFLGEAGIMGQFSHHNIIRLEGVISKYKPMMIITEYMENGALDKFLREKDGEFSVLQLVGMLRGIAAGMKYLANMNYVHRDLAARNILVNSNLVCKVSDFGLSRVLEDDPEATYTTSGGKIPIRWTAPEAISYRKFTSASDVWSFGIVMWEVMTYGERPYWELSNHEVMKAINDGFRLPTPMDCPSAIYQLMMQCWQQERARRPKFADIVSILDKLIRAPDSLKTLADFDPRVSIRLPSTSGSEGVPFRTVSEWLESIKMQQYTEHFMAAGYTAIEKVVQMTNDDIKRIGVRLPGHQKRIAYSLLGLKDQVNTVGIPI
Receptor-type tyrosine-protein kinase FLT3 (Homo sapiens), sequence (P36888 whole entry): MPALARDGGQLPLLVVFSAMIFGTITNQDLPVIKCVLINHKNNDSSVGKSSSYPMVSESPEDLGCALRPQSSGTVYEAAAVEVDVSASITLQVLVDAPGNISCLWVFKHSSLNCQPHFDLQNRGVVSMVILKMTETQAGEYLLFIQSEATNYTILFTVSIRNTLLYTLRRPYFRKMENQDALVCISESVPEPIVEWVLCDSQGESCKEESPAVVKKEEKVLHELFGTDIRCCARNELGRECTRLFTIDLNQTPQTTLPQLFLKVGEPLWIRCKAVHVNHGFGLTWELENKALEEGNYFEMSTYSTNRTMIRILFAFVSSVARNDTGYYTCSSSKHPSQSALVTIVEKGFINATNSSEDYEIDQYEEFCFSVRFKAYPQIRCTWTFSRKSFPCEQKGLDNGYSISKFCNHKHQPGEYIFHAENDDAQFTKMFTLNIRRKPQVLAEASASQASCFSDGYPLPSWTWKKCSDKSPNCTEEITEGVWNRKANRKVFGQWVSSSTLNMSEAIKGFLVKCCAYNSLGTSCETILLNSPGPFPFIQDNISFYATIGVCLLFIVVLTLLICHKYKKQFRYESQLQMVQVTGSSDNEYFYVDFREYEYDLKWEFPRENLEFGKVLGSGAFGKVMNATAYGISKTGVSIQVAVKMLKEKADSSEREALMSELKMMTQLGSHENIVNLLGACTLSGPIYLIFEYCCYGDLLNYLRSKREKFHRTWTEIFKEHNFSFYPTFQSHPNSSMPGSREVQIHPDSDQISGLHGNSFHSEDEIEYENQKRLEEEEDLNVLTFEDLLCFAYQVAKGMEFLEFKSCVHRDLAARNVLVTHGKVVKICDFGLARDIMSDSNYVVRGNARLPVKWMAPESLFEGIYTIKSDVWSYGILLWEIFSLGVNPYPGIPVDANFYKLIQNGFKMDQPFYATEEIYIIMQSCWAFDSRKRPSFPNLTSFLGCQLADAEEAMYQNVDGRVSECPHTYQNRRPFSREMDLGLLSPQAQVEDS
Mitogen-activated protein kinase kinase kinase 20 (Homo sapiens), sequence (Q9NYL2 2-800 limits assumed): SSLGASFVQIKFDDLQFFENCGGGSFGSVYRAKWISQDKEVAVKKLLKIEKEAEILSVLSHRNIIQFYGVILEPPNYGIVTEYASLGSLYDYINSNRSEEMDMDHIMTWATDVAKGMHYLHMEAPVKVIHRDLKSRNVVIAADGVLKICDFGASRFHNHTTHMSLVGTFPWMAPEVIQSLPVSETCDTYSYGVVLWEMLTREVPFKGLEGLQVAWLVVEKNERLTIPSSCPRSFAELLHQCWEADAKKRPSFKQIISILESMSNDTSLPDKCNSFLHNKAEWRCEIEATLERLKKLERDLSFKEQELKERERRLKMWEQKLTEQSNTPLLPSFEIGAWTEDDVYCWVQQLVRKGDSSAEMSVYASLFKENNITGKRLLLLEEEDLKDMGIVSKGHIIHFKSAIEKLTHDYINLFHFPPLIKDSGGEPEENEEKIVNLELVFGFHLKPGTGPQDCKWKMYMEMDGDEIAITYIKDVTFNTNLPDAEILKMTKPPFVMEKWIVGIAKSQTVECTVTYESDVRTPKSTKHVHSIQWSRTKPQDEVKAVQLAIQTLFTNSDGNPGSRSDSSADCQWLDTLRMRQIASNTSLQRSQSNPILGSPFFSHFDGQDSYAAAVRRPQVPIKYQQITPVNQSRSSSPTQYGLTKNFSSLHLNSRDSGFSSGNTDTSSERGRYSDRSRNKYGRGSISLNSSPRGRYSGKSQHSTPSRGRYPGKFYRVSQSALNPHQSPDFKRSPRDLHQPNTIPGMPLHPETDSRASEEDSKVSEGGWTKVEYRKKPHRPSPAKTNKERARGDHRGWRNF

For the molecule `O=C(N[C@@H](C1CC1)C(F)(F)F)c1cc(-c2cnn3cc(-c4ccc(F)cc4)cnc23)cs1`, the inhibition in experiment [1] was found to be 0%; in experiment [2], 19%; in experiment [3], 0%. Moreover, the fold change (FC) worked out at 0.01 in experiment [4], 0.03 in experiment [5], 0 in experiment [6] and 0 in experiment [7].
As for `CNC(=O)c1ccccc1Oc1nc(Nc2cc(OC)c(OC)c(OC)c2)ncc1Br`, the inhibition in experiment [8] was found to be 2%.

For the origin of these results see ChEMBL document CHEMBL5653631, “A Potent and Selective ULK1 Inhibitor Suppresses Autophagy and Sensitizes Cancer Cells to Nutrient Stress” (iScience, 2018).
